Source: US20250230193A1, “CYCLIC COMPOUND HAVING SELECTIVE KRAS INHIBITORY EFFECT ON HRAS AND NRAS” (CHUGAI SEIYAKU KABUSHIKI KAISHA, priority 2022, published 2025)
*1 amine or outer side, *2 acyl side, *3 side chain or, on linkers, in order; H or OH if unused. Where a SMILES comes first, the peptide text is derived from it. Bridges are numbered along the chain shown (N, C = ends). [ ]: non-standard residue; d: D form. The star is where a group is joined. hPhe(3-Cl-4-CF3) = N[C@@H](CCc1ccc(C(F)(F)F)c(Cl)c1)C(=O)O; X47 = O=C([C@H](Cc1ccc(C(F)(F)F)cc1)N(CCCF)[*:1])[*:2]; NMeGly(cPent) = CN[C@H](C(=O)O)C1CCCC1; NMeD = CN[C@@H](CC(=O)O)C(=O)O; NMeL = CN[C@@H](CC(C)C)C(=O)O; Morpholide = C1CN(*)CCO1; Ac5c = NC1(C(=O)O)CCCC1; Sar = CNCC(=O)O

Key:
[1] = molecular target: GDP-bound NRAS wild-type protein (Homo sapiens, UniProt P01111); experiment: Binding to NRAS by surface plasmon resonance (SPR), Single Cycle Kinetics; conditions: KD ratio NRAS/KRAS, SPR
GDP-bound NRAS wild-type protein, sequence (P01111 whole entry): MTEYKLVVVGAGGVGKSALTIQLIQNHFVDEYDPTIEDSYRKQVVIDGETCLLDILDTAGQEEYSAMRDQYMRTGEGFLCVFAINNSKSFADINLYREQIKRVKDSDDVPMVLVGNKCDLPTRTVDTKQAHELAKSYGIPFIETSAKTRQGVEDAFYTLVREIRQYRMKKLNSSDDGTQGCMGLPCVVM

[2] = molecular target: GDP-bound HRAS wild-type protein (Homo sapiens, UniProt P01112); experiment: Binding to HRAS by surface plasmon resonance (SPR), Single Cycle Kinetics; conditions: KD ratio HRAS/KRAS, SPR
GDP-bound HRAS wild-type protein, sequence (P01112 whole entry): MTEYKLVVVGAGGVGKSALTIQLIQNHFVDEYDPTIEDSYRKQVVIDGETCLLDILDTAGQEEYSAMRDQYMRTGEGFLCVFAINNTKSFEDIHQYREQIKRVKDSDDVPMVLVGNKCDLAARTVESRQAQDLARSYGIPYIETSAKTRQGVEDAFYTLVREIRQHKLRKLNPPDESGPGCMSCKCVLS

| Compound | NRAS/KRAS (ratio of KD value with respect to GDP-bound NRAS wild-type protein to KD value with respect to KRAS) [1] | HRAS/KRAS (ratio of KD value with respect to GDP-bound HRAS wild-type protein to KD value with respect to KRAS) [2] |
| --- | --- | --- |
| CC[C@H](C)[C@@H]1NC(=O)[C@H](CC(C)C)N(C)C(=O)C[C@@H](C(=O)N2CCOCC2)N(C)C(=O)[C@H](CC(F)(F)F)N(C)C(=O)C2(CCCC2)NC(=O)[C@@H]2CCCN2C(=O)[C@H](CCc2cc(F)c(C(F)(F)F)c(F)c2)NC(=O)CN(C)C(=O)[C@H](Cc2ccc(C(F)(F)F)cc2)N2CCCCC[C@@H](C2=O)N(C)C(=O)CN(C)C1=O [PP0506] | B (a compound having 3 or more and less than 10 is denoted as B) | B (a compound having 3 or more and less than 10 is denoted as B) |
| CC[C@H](C)[C@@H]1NC(=O)[C@H](CC(C)C)N(C)C(=O)C[C@@H](C(=O)N(C)C)N(C)C(=O)[C@H](C2CCCC2)N(C)C(=O)C2(CCCC2)NC(=O)[C@@H]2CCCN2C(=O)[C@H](CCc2cc(F)c(C(F)(F)F)c(F)c2)NC(=O)CN(C)C(=O)[C@H](Cc2ccc(C(F)(F)F)cc2)N2CCCCC[C@@H](C2=O)N(C)C(=O)CN(C)C1=O [PP0507] | B (a compound having 3 or more and less than 10 is denoted as B) | B (a compound having 3 or more and less than 10 is denoted as B) |
| CC[C@H](C)[C@@H]1NC(=O)[C@H](CC(C)C)N(C)C(=O)C[C@@H](C(=O)N2CCCC2)N(C)C(=O)[C@H](C2CCCC2)N(C)C(=O)C2(CCCC2)NC(=O)[C@@H]2CCCN2C(=O)[C@H](CCc2cc(F)c(C(F)(F)F)c(F)c2)NC(=O)CN(C)C(=O)[C@H](Cc2ccc(C(F)(F)F)cc2)N2CCCCC[C@@H](C2=O)N(C)C(=O)CN(C)C1=O [PP0509] | B (a compound having 3 or more and less than 10 is denoted as B) | B (a compound having 3 or more and less than 10 is denoted as B) |
| CC[C@H](C)[C@@H]1NC(=O)[C@H](CC(C)C)N(C)C(=O)C[C@@H](C(=O)N2CCCCC2)N(C)C(=O)[C@H](C2CCCC2)N(C)C(=O)C2(CCCC2)NC(=O)[C@@H]2CCCN2C(=O)[C@H](CCc2cc(F)c(C(F)(F)F)c(F)c2)NC(=O)CN(C)C(=O)[C@H](Cc2ccc(C(F)(F)F)cc2)N2CCCCC[C@@H](C2=O)N(C)C(=O)CN(C)C1=O [PP0510] | B (a compound having 3 or more and less than 10 is denoted as B) | B (a compound having 3 or more and less than 10 is denoted as B) |
| CC[C@H](C)[C@@H]1NC(=O)[C@H](CC(C)C)N(C)C(=O)C[C@@H](C(=O)N2C3CCC2COC3)N(C)C(=O)[C@H](C2CCCC2)N(C)C(=O)C2(CCCC2)NC(=O)[C@@H]2CCCN2C(=O)[C@H](CCc2cc(F)c(C(F)(F)F)c(F)c2)NC(=O)CN(C)C(=O)[C@H](Cc2ccc(C(F)(F)F)cc2)N2CCCCC[C@@H](C2=O)N(C)C(=O)CN(C)C1=O [PP0511] | A (a compound having 10 or more and less than 20 is denoted as A) | B (a compound having 3 or more and less than 10 is denoted as B) |
| CC[C@H](C)[C@@H]1NC(=O)[C@H](CC(C)C)N(C)C(=O)C[C@@H](C(=O)N(C)C)N(C)C(=O)[C@H](C2CCCC2)N(C)C(=O)C2(CCC2)NC(=O)[C@@H]2CCCN2C(=O)[C@H](CCc2cc(F)c(C(F)(F)F)c(F)c2)NC(=O)CN(C)C(=O)[C@H](Cc2ccc(C(F)(F)F)cc2)N2CCCCC[C@@H](C2=O)N(C)C(=O)CN(C)C1=O [PP0512] | B (a compound having 3 or more and less than 10 is denoted as B) | B (a compound having 3 or more and less than 10 is denoted as B) |
| CC[C@H](C)[C@@H]1NC(=O)[C@H](CC(C)C)N(CC)C(=O)C[C@@H](C(=O)N2CCOCC2)N(C)C(=O)[C@H](C2CCCC2)N(C)C(=O)C2(CCCC2)NC(=O)[C@@H]2CCCN2C(=O)[C@H](CCc2cc(F)c(C(F)(F)F)c(F)c2)NC(=O)CN(C)C(=O)[C@H](Cc2ccc(C(F)(F)F)cc2)N2CCCCC[C@@H](C2=O)N(C)C(=O)CN(C)C1=O [PP0513] | B (a compound having 3 or more and less than 10 is denoted as B) | B (a compound having 3 or more and less than 10 is denoted as B) |
| CC[C@H](C)[C@@H]1NC(=O)[C@H](CC(C)C)N(C)C(=O)C[C@@H](C(=O)N(C)C)N(C)C(=O)[C@H](C2CCCC2)N(C)C(=O)C2(CCCC2)NC(=O)[C@@H]2CCCN2C(=O)[C@H](CCc2cc(F)c(C(F)(F)F)c(F)c2)NC(=O)CN(C)C(=O)[C@H](Cc2ccc(C(F)(F)F)cc2)N2CCCCC[C@@H](C2=O)N(C)C(=O)CN(CC)C1=O [PP0514] | B (a compound having 3 or more and less than 10 is denoted as B) | B (a compound having 3 or more and less than 10 is denoted as B) |
| CC[C@H](C)[C@@H]1NC(=O)[C@H](CC(C)C)N(C)C(=O)C[C@@H](C(=O)N2CCOCC2)N(C)C(=O)[C@H](C2CCCC2)N(C)C(=O)C2(CCCC2)NC(=O)[C@H](C)N(CC)C(=O)[C@H](CCc2cc(F)c(C(F)(F)F)c(F)c2)NC(=O)CN(C)C(=O)[C@H](Cc2ccc(C(F)(F)F)cc2)N2CCCCC[C@@H](C2=O)N(C)C(=O)CN(C)C1=O [PP0515] | B (a compound having 3 or more and less than 10 is denoted as B) | B (a compound having 3 or more and less than 10 is denoted as B) |
| CC[C@H](C)[C@@H]1NC(=O)[C@H](CC(C)C)NC(=O)C[C@@H](C(=O)N2CCOCC2)N(C)C(=O)[C@H](C2CCCC2)N(C)C(=O)C2(CCCC2)NC(=O)[C@@H]2CCCN2C(=O)[C@H](CCc2cc(F)c(C(F)(F)F)c(F)c2)NC(=O)CN(C)C(=O)[C@H](Cc2ccc(C(F)(F)F)cc2)N2CCCCC[C@@H](C2=O)N(C)C(=O)CN(C)C1=O [PP0516] | B (a compound having 3 or more and less than 10 is denoted as B) | B (a compound having 3 or more and less than 10 is denoted as B) |
| CC[C@H](C)[C@@H]1NC(=O)[C@H](CC(F)(F)F)N(C)C(=O)C[C@@H](C(=O)N2CCOCC2)N(C)C(=O)[C@H](C2CCCC2)N(C)C(=O)C2(CCCC2)NC(=O)[C@@H]2CCCN2C(=O)[C@H](CCc2cc(F)c(C(F)(F)F)c(F)c2)NC(=O)CN(C)C(=O)[C@H](Cc2ccc(C(F)(F)F)cc2)N2CCCCC[C@@H](C2=O)N(C)C(=O)CN(C)C1=O [PP0520] | B (a compound having 3 or more and less than 10 is denoted as B) | B (a compound having 3 or more and less than 10 is denoted as B) |
| CC[C@H](C)[C@@H]1NC(=O)[C@@H]2CCCCCN2C(=O)C[C@@H](C(=O)N2CCOCC2)N(C)C(=O)[C@H](C2CCCC2)N(C)C(=O)C2(CCCC2)NC(=O)[C@@H]2CCCN2C(=O)[C@H](CCc2cc(F)c(C(F)(F)F)c(F)c2)NC(=O)CN(C)C(=O)[C@H](Cc2ccc(C(F)(F)F)cc2)N2CCCCC[C@@H](C2=O)N(C)C(=O)CN(C)C1=O [PP0521] | B (a compound having 3 or more and less than 10 is denoted as B) | B (a compound having 3 or more and less than 10 is denoted as B) |
| CC(C)C[C@H]1C(=O)N[C@@H](C2CCC2)C(=O)N(C)CC(=O)N(C)[C@H]2CCCCCN(C2=O)[C@@H](Cc2ccc(C(F)(F)F)cc2)C(=O)N(C)CC(=O)N[C@@H](CCc2cc(F)c(C(F)(F)F)c(F)c2)C(=O)N2CCC[C@H]2C(=O)NC2(CCCC2)C(=O)N(C)[C@@H](C2CCCC2)C(=O)N(C)[C@H](C(=O)N2CCOCC2)CC(=O)N1C [PP0522] | B (a compound having 3 or more and less than 10 is denoted as B) | B (a compound having 3 or more and less than 10 is denoted as B) |
| CCC(CC)[C@@H]1NC(=O)[C@H](CC(C)C)N(C)C(=O)C[C@@H](C(=O)N2CCOCC2)N(C)C(=O)[C@H](C2CCCC2)N(C)C(=O)C2(CCCC2)NC(=O)[C@@H]2CCCN2C(=O)[C@H](CCc2cc(F)c(C(F)(F)F)c(F)c2)NC(=O)CN(C)C(=O)[C@H](Cc2ccc(C(F)(F)F)cc2)N2CCCCC[C@@H](C2=O)N(C)C(=O)CN(C)C1=O [PP0523] | A (a compound having 10 or more and less than 20 is denoted as A) | B (a compound having 3 or more and less than 10 is denoted as B) |
| CC[C@H](C)[C@@H]1NC(=O)[C@H](CC(C)C)N(C)C(=O)C[C@@H](C(=O)N2CCOCC2)N(C)C(=O)[C@H](C2CCCC2)N(C)C(=O)C2(CCCC2)NC(=O)[C@@H]2CCCN2C(=O)[C@H](CCc2ccc(C(F)(F)F)c(Cl)c2)NC(=O)CN(C)C(=O)[C@H](Cc2ccc(C(F)(F)F)cc2)N(CCCF)C(=O)CN(C)C(=O)CN(C)C1=O [PP0524] ([NMeL]I[Sar][Sar][X47][Sar][hPhe(3-Cl-4-CF3)]P[Ac5c][NMeGly(cPent)][NMeD]-Morpholide; lactam N-11) | B (a compound having 3 or more and less than 10 is denoted as B) | C (A compound having a KD ratio of 0.1 or more and less than 3 is denoted as C) |
